Measured values from PMC10122656, “Siglec-6 mediates the uptake of extracellular vesicles through a noncanonical glycolipid binding pocket” (Nature Communications, 2023).
Several values for one entry are separate records, joined by “and”; a condition that tells them apart may be missing. Equal entries are not always repeated.

Key:
Assay in all cases: Liposome over lectin assay (LOLA)
Siglec-1-Fc R116A = format: binding, human; details: Siglec-1 R (arginine mutant); replicates
Protocol: (§1) Siglec-Fc constructs designed by Rodrigues et al.[30] were used in this work. Siglec-Fc constructs were expressed using WT CHO cells in cell culture media as described above with 1% HEPES. Cells incubated as described above for one-week post confluency. The supernatant was harvested and stored at 4 °C.
(§2) The purification was heavily inspired by Rodrigues et al.[30]. The purification of the Siglec-Fcs from supernatant began with Ni^2+ affinity chromatography using an AKTA FPLC equipped with a HisTrap Excel column (GE). The column was equilibrated with fifteen column volumes (CVs) of equilibrium buffer (500 mM NaCl, 20 mM NaPO4H2, pH 7.4). The Siglec-Fc containing supernatant was then loaded in its entirety onto the column. The column was then washed with fifteen CVs of wash buffer (500 mM NaCl, 30 mM imidazole, 20 mM NaPO4H2, pH 7.4). The Siglec-Fc was then eluted in 20 in 1 mL fractions with twenty CVs of elution buffer (500 mM NaCl, 500 mM imidazole, 20 mM NaPO4H2, pH 7.4). Fractions containing Siglec-Fc were compiled and then prepared for the next stage of purification by diluting the fractions 1:4 with buffer W (100 mM Tris–HCl, 150 mM NaCl, 1 mM EDTA, pH 8.0). A Strep-Tactin column (IBA life sciences) was washed with fifteen CVs of buffer W. The Siglec-Fc-buffer W solution was then loaded in its entirety onto the column. The bound Siglec-Fc was then washed with fifteen CVs of buffer W. Siglec-Fc was eluted from the column with 15 column volumes of buffer E (100 mM Tris–HCl, 150 mM NaCl, 1 mM EDTA, 10 mM d-Desthiobiotin, pH 8.0). Fractions containing Siglec-Fc were pooled and dialyzed against PBS to remove any d-Desthiobiotin. After dialysis, Siglec-Fcs were concentrated using an ultra-centrifugal device (30 kDa MWCO) and aliquoted into 5 µg aliquots, and frozen. The Siglec-Fcs were then lyophilized overnight, and the lyophilized Siglec-Fcs were stored at −20 °C.
(§3) Siglec-Fc in PBS was adsorbed to a 96-well flat-bottom fluorescent microplate by adding 1 µg/well and incubating the plate at 4 °C overnight. The plate was then washed with PBS followed by blocking with 5% (m/V) BSA in PBS for 1 h at room temperature. The plate was again washed with PBS and 100 µM liposome in PBS was added to each well. The plate was then incubated at 37 °C for 30 min followed by washing with PBS. PBS was then added to the plate and the fluorescence intensity (λex 640 nm, λem 680 nm) of each well was measured using a Molecular Devices SpectraMAX ® iD5.

Siglec-6-Fc WT = biological target: T1, Siglec-6-Fc WT (Homo sapiens, UniProt O43699); format: binding; details: Siglec-6 WT; replicates
T1 construct: the Siglecs as Fc chimeras; made in house; host or cells: WT CHO cells
T1 sequence (O43699 27-347 limits assumed): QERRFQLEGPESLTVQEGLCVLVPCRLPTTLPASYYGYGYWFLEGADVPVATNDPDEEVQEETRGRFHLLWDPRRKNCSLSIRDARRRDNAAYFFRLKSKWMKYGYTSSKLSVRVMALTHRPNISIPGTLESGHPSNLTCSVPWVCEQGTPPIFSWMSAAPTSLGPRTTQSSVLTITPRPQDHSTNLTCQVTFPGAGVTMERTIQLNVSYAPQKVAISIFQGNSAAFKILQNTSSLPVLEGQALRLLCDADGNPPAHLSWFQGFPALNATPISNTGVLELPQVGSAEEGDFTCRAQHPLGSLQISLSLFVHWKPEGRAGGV
Protocol: as §1, §2, §3

R122A Siglec-6-Fc = biological target: T2, R122A Siglec-6-Fc (Homo sapiens, UniProt O43699, R122A); format: binding; details: Siglec-6 R (arginine mutant); replicates
T2 construct: the Siglecs as Fc chimeras; made in house; host or cells: WT CHO cells
T2 sequence (O43699 27-347 R122A limits assumed): as the sequence (O43699 27-347 limits assumed) above, with R96A counted along it
Protocol: as §1, §2, §3

Siglec-1-Fc WT = Siglec-1-Fc WT (Homo sapiens, UniProt Q9BZZ2); format: binding; details: Siglec-1 WT; replicates
Chain of Siglec-1-Fc WT (Q9BZZ2 20-136 limits assumed): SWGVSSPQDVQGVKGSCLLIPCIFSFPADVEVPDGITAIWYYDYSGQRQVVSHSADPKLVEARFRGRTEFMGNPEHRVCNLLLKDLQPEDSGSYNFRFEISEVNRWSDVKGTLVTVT
Protocol: as §1, §2, §3

Siglec-7-Fc R124A = biological target: T3, Siglec-7-Fc R124A (Homo sapiens, UniProt Q9Y286, R124A); format: binding; details: Siglec-7 R (arginine mutant); replicates
T3 construct: the Siglecs as Fc chimeras; made in house; host or cells: WT CHO cells
T3 sequence (Q9Y286 19-353 R124A limits assumed): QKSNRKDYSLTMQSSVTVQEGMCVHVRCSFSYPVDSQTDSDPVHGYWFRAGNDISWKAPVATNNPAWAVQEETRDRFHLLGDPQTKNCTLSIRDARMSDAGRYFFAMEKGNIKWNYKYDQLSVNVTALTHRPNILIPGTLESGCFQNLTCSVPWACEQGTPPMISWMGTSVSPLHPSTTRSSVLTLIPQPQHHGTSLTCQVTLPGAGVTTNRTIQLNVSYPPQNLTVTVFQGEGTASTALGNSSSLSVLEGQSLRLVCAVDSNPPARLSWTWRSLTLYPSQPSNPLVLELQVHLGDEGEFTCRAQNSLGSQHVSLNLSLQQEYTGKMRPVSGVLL
Protocol: as §1, §2, §3

Siglec-7-Fc WT = biological target: T4, Siglec-7-Fc WT (Homo sapiens, UniProt Q9Y286); format: binding; details: Siglec-7 WT; replicates
T4 construct: the Siglecs as Fc chimeras; made in house; host or cells: WT CHO cells
T4 sequence (Q9Y286 19-353 limits assumed): as the sequence (Q9Y286 19-353 R124A limits assumed) above, with A106R counted along it
Protocol: as §1, §2, §3

Chain of Siglec-1-Fc R116A (Q9BZZ2 20-136 R116A limits assumed): as the sequence (Q9BZZ2 20-136 limits assumed) above, with R97A counted along it

| Substance | LOLA: GLL binding, fluorescence plate reader (Fig. 2e) (Siglec-1-Fc R116A) | LOLA: GLL binding, fluorescence plate reader (Fig. 2e) (Siglec-6-Fc WT) | LOLA: GLL binding, fluorescence plate reader (Fig. 2e) (R122A Siglec-6-Fc) | LOLA: GLL binding, fluorescence plate reader (Fig. 2e) (Siglec-1-Fc WT) | LOLA: GLL binding, fluorescence plate reader (Fig. 2e) (Siglec-7-Fc R124A) | LOLA: GLL binding, fluorescence plate reader (Fig. 2e) (Siglec-7-Fc WT) |
| --- | --- | --- | --- | --- | --- | --- |
| GD1a | 8.88 and 7.01 and 5.82 and 9.99 and 5.45 | 28.61 and 32.95 and 30.67 and 25.13 and 23.55 | 37.34 and 37.32 and 38.57 and 41.15 and 44.1 | 13.17 and 9.49 and 10.37 and 14.33 and 18.05 | 6.47 and 10.42 and 11.8 and 5.25 and 10.13 | 7.1 and 6.68 and 9.94 and 10.73 and 13.26 |
| GD3 | 6.08 and 3.44 and 4.47 and 3.34 and 3.26 | 33.08 and 30.39 and 25.39 and 23.72 and 21.46 | 36.87 and 29.95 and 29.9 and 34.98 and 32.24 | 9.49 and 6.85 and 10.11 and 9.9 and 7.11 | -0.64 and 18.58 and 8.22 and 12.6 and 8.15 | 10.57 and 10.04 and 18 and 18.66 and 20.44 |
| GM1 | 6.6 and 6.11 and 3.97 and 6.44 and 3.68 | 18.34 and 20.42 and 17.75 and 12.02 and 17.78 | 17.43 and 40.61 and 36.66 and 31.85 and 32.16 | 5.66 and 12.97 and 11.61 and 4.8 and 8.91 | 2.83 and 4.02 and 10.31 and 3.55 and 12.57 | 6.49 and 5.21 and 2.94 and 8.58 and 5.66 |
| GQ1b | 6.93 and 2.97 and 4.43 and 6.13 and 5.67 | 19.03 and 15.89 and 21.18 and 22.9 and 35.39 | 25.13 and 35.2 and 35.69 and 28.06 and 30.69 | 10.86 and 11.87 and 9.36 and 23.13 and 11.98 | 6.14 and 4.56 and 5.96 and 16.03 and 20.32 | 15.3 and 24.18 and 22.56 and 26.04 and 30.34 |
